pEC50: −log10 of the molar value.
Each compound was assayed against T1, glucokinase (GK) (Homo sapiens, UniProt P35557) (assay: enzymatic glucokinase activity assay (ATP consumption, KinaseGlo luminescence)). Conditions: Against GK; Kact = concentration giving 50% of maximal increase in GK activity; 5 μM ATP, 5 mM Glucose, 60 min room temperature; values given as bins; read-out: pKact.
T1 construct: I.D. No. 1 corresponds to residues 12-465 of glucokinase; made in house; host or cells: E. coli DH10b-T1r, pFLAG-CTC plasmid
T1 sequence (P35557 with tags, fused parts or gaps isoform P35557-2): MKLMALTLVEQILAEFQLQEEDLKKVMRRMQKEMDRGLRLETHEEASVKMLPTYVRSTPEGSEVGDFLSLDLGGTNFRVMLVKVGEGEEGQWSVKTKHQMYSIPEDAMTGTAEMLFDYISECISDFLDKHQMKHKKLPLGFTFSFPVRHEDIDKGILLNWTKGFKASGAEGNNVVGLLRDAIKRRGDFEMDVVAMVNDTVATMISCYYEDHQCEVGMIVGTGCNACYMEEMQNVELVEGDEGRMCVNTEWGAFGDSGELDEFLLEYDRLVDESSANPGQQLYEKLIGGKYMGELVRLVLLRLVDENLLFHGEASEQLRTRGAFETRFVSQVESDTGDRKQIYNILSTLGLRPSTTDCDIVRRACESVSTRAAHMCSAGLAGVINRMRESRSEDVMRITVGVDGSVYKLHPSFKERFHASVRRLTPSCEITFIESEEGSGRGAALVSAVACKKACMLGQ
Format: biochemical
Excerpt: The activity of compounds as glucokinase activators may be assayed in vitro, in vivo or in a cell line. Provided below is an enzymatic glucokinase activity assay.
Purified glucokinase may be obtained as follows. DNA encoding residues 12-465 of the full-length sequence of the human enzyme may be amplified by PCR and cloned into the HindIII and EcoRI sites of pFLAG-CTC (Sigma). SEQ. I.D. No. 1 corresponds to residues 12-465 of glucokinase.
The expression of recombinant glucokinase protein may be carried out by transformation and growth of DH10b-T1r E. coli cells incorporating the (pFLAG-CTC) plasmid in LB media. Protein expression can be induced in this system by the addition of IPTG to the culture medium.
Recombinant protein may be isolated from cellular extracts by passage over Sepharose Q Fast Flow resin (Pharmacia). This partially purified GK extract may then be further purified by a second passage over Poros HQ10 (Applied Biosystems). The purity of GK may be determined on denaturing SDS-PAGE gel. Purified GK may then be concentrated to a final concentration of 20.0 mg/ml. After flash freezing in liquid nitrogen, the proteins can be stored at −78° C. in a buffer containing 25 mM TRIS-HCl pH 7.6, 50 mM NaCl, and 0.5 mM TCEP.
The activation properties of compounds for GK may be determined using a black 384-well-plate format under the following reaction conditions: 25 mM Hepes pH 7.2, 25 mM NaCl, 10 mM MgCl2, 0.01% Brij35, 1 mM DTT, 5 μM ATP, 5 mM Glucose 2% DMSO. The amount of ATP consumed may be determined quantitatively by addition of equal volume of luciferase reagent (luciferase+beetle luciferin—KinaseGlo Luminescent Kinase Assay kit from Promega). The luminescence intensity may be measured by using the Analyst HT from LJL Biosystems.
The assay reaction may be initiated as follows: 4 μl of substrate mixture (12.5 μM ATP and 12.5 mM Glucose) was added to each well of the plate, followed by the addition of 2 μl of activator (2 fold serial dilutions for 11 data points for each activator) containing 10% DMSO. 4 μL of 1.25 nM GK solution may be added to initiate the reaction. The reaction mixture may then be incubated at room temperature for 60 min, and quenched and developed by addition of 10 μL of luciferase reagent. Luminescence intensities of the resulting reaction mixtures may be measured after a 10 min incubation at room temperature. The luminescence intensity may be measured by using the Analyst HT from LJL Biosystems.
pKact and % ACTmax values may be calculated by non-linear curve fitting of the compound concentrations and luminescence intensities to a standard inhibition/activation equation.

First: O=C(NC1CC1)c1ccc2c(=O)n(C(CC3CCCCC3)C(=O)Nc3ncc(Cl)s3)cnc2c1 (stereo not shown) [Compound 170, 3-(1-(5-chlorothiazol-2-ylamino)-3-cyclohexyl-1-oxopropan-2-yl)-N-cyclopropyl-4-oxo-3,4-dihydroquinazoline-7-carboxamide]
Second: O=C(NC1CC1)c1ccc2c(=O)n(C(CC3CCOCC3)C(=O)Nc3ncc(Cl)s3)cnc2c1 (stereo not shown) [Compound 180, 3-(1-(5-chlorothiazol-2-ylamino)-1-oxo-3-(tetrahydro-2H-pyran-4-yl)propan-2-yl)-N-cyclopropyl-4-oxo-3,4-dihydroquinazoline-7-carboxamide]
The pEC50 of the first is higher: at least 6.40 for the first, at most 5.70 for the second. The first is the more potent here.

`CS(=O)(=O)c1csc2c(=O)n(C(CC3CCCCC3)C(=O)Nc3ccc(Cl)cn3)cnc12` (stereo not shown) [Compound 184, N-(5-chloropyridin-2-yl)-3-cyclohexyl-2-(7-(methylsulfonyl)-4-oxothieno[3,2-d]pyrimidin-3(4H)-yl)propanamide] and `CS(=O)(=O)c1csc2c(=O)n(C(CC3CCCCC3)C(=O)Nc3ccc(C(N)=O)cn3)cnc12` (stereo not shown) [Compound 182, 6-(3-cyclohexyl-2-(7-(methylsulfonyl)-4-oxothieno[3,2-d]pyrimidin-3(4H)-yl)propanamido)nicotinamide] fall in the same range of pEC50: 5.80 to 6.00 for the first, 5.80 to 6.00 for the second.

`O=C(Nc1ccc(F)cn1)C(CC1CCCCC1)n1cnc2ccc(F)cc2c1=O` (stereo not shown) [Compound 159, 3-cyclohexyl-2-(6-fluoro-4-oxoquinazolin-3(4H)-yl)-N-(5-fluoropyridin-2-yl)propanamide] and `Cc1ccc(NC(=O)C(CC2CCCCC2)n2cnc3ccc(F)cc3c2=O)nc1` (stereo not shown) [Compound 192, 3-cyclohexyl-2-(6-fluoro-4-oxoquinazolin-3(4H)-yl)-N-(5-methylpyridin-2-yl)propanamide] cannot be ordered by pEC50: at most 5.70 for the first, at most 5.70 for the second.

`CN(C)CCNC(=O)c1ccc2c(=O)n(C(CC3CCCCC3)C(=O)Nc3ncc(Cl)s3)c(=O)[nH]c2c1` (stereo not shown) [Compound 177, 3-(1-(5-chlorothiazol-2-ylamino)-3-cyclohexyl-1-oxopropan-2-yl)-N-(2-(dimethylamino)ethyl)-2,4-dioxo-1,2,3,4-tetrahydroquinazoline-7-carboxamide] and `O=C(NC1CC1)c1ccc2c(=O)n(C(CC3CCCCC3)C(=O)Nc3ncc(Cl)s3)c(=O)[nH]c2c1` (stereo not shown) [Compound 172, 3-(1-(5-chlorothiazol-2-ylamino)-3-cyclohexyl-1-oxopropan-2-yl)-N-cyclopropyl-2,4-dioxo-1,2,3,4-tetrahydroquinazoline-7-carboxamide] fall in the same range of pEC50: 6.10 to 6.30 for the first, 6.10 to 6.30 for the second.

`COC(=O)c1ccc(NC(=O)C(CC2CCCCC2)n2cnc3cc(F)ccc3c2=O)nc1` (stereo not shown) [Compound 205, methyl 6-(3-cyclohexyl-2-(7-fluoro-4-oxoquinazolin-3(4H)-yl)propanamido)nicotinate] and `COC(=O)c1ccc(NC(=O)[C@H](CC2CCCCC2)n2cnc3c(C(F)(F)F)cccc3c2=O)nc1` [Compound 210, (S)-methyl 6-(3-cyclohexyl-2-(4-oxo-8-(trifluoromethyl)quinazolin-3(4H)-yl)propanamido)nicotinate] fall in the same range of pEC50: 5.80 to 6.00 for the first, 5.80 to 6.00 for the second.

First: COC(=O)c1ccc(NC(=O)C(CC2CCCCC2)n2cnc3cc(S(=O)(=O)C4CCCC4)ccc3c2=O)nc1 (stereo not shown) [Compound 83, 6-[3-Cyclohexyl-2-(7-cyclopentanesulfonyl-4-oxo-4H-quinazolin-3-yl)-propionylamino]-nicotinic acid methyl ester]
Second: O=C(Nc1ccc(Cl)cn1)C(CC1CCCCC1)n1cnc2cc(S(=O)(=O)C3CC3)ccc2c1=O (stereo not shown) [Compound 75, N-(5-Chloro-pyridin-2-yl)-3-cyclohexyl-2-(7-cyclopropanesulfonyl-4-oxo-4H-quinazolin-3-yl)-propionamide]
The pEC50 of the first is higher: at least 6.40 for the first, 6.10 to 6.30 for the second. The first is the more potent here.

First: O=C(NC1CC1)c1ccc2c(=O)n(C(CC3CCCCC3)C(=O)Nc3ccc(Cl)cn3)cnc2c1 (stereo not shown) [Compound 171, 3-(1-(5-chloropyridin-2-ylamino)-3-cyclohexyl-1-oxopropan-2-yl)-N-cyclopropyl-4-oxo-3,4-dihydroquinazoline-7-carboxamide]
Second: O=C(Nc1ccc(Cl)cn1)C(CC1CCCCC1)n1cnc2ccc(F)cc2c1=O (stereo not shown) [Compound 160, N-(5-chloropyridin-2-yl)-3-cyclohexyl-2-(6-fluoro-4-oxoquinazolin-3(4H)-yl)propanamide]
The pEC50 of the first is higher: at least 6.40 for the first, 5.80 to 6.00 for the second.

First: O=C(Nc1ncc(Cl)s1)C(CC1CCCCC1)n1cnc2ccc(Cl)cc2c1=O (stereo not shown) [Compound 47, 2-(6-Chloro-4-oxo-4H-quinazolin-3-yl)-N-(5-chloro-thiazol-2-yl)-3-cyclohexyl-propionamide]
Second: COc1ccc2ncn(C(CC3CCCCC3)C(=O)Nc3ccc(Cl)cn3)c(=O)c2c1 (stereo not shown) [Compound 168, N-(5-chloropyridin-2-yl)-3-cyclohexyl-2-(6-methoxy-4-oxoquinazolin-3(4H)-yl)propanamide]
The pEC50 of the first is lower: 5.80 to 6.00 for the first, 6.10 to 6.30 for the second.

First: CCS(=O)(=O)c1ccc2c(=O)n(C(CC3CCCCC3)C(=O)Nc3ccc(C(N)=O)cn3)cnc2c1 (stereo not shown) [Compound 81, 6-[3-Cyclohexyl-2-(7-ethanesulfonyl-4-oxo-4H-quinazolin-3-yl)-propionylamino]-nicotinamide]
Second: COc1ccc2ncn(C(CC3CCCCC3)C(=O)Nc3ccc(C(N)=O)cn3)c(=O)c2c1 (stereo not shown) [Compound 167, 6-(3-cyclohexyl-2-(6-methoxy-4-oxoquinazolin-3(4H)-yl)propanamido)nicotinamide]
The pEC50 of the first is higher: at least 6.40 for the first, 6.10 to 6.30 for the second. The first is the more potent here.

First: CS(=O)(=O)c1ccc2ncn(C(CC3CCCCC3)C(=O)Nc3ccc(Cl)cn3)c(=O)c2c1 (stereo not shown) [Compound 79, N-(5-Chloro-pyridin-2-yl)-3-cyclohexyl-2-(6-methanesulfonyl-4-oxo-4H-quinazolin-3-yl)-propionamide]
Second: CS(=O)(=O)c1ccc2c(=O)n(C(CC3CCCCC3)C(=O)Nc3ccc(C#N)cn3)cnc2c1 (stereo not shown) [Compound 166, N-(5-cyanopyridin-2-yl)-3-cyclohexyl-2-(7-(methylsulfonyl)-4-oxoquinazolin-3(4H)-yl)propanamide]
The pEC50 of the first is higher: 6.10 to 6.30 for the first, at most 5.70 for the second.

`Cc1ccc(NC(=O)C(CC2CCCCC2)n2cnc3c(cnn3C)c2=O)nc1` (stereo not shown) [Compound 110, 3-Cyclohexyl-2-(1-methyl-4-oxo-1H-pyrazolo[3,4-d]pyrimidin-5(4H)-yl)-N-(5-methylpyridin-2-yl)propanamide] and `CS(=O)(=O)c1ccc2c(=O)n(C(CC3CCCCC3)C(=O)Nc3ccccn3)cnc2c1` (stereo not shown) [Compound 60, 3-Cyclohexyl-2-(7-methanesulfonyl-4-oxo-4H-quinazolin-3-yl)-N-pyridin-2-yl-propionamide] cannot be ordered by pEC50: at most 5.70 for the first, at most 5.70 for the second.

Compared with `CN1CCC(CNC(=O)c2ccc3c(=O)n(C(CC4CCCCC4)C(=O)Nc4ncc(Cl)s4)cnc3c2)CC1` (stereo not shown) [Compound 178, 3-(1-(5-chlorothiazol-2-ylamino)-3-cyclohexyl-1-oxopropan-2-yl)-N-((1-methylpiperidin-4-yl)methyl)-4-oxo-3,4-dihydroquinazoline-7-carboxamide], `CN1CCC(CNC(=O)c2ccc3c(=O)n(C(CC4CCCCC4)C(=O)Nc4ncc(Cl)s4)c(=O)[nH]c3c2)CC1` (stereo not shown) [Compound 179, 3-(1-(5-chlorothiazol-2-ylamino)-3-cyclohexyl-1-oxopropan-2-yl)-N-((1-methylpiperidin-4-yl)methyl)-2,4-dioxo-1,2,3,4-tetrahydroquinazoline-7-carboxamide] is higher in pEC50: 5.80 to 6.00 for the first, 6.10 to 6.30 for the second.

`COc1ccc2ncn(C(CC3CCCCC3)C(=O)Nc3nccs3)c(=O)c2c1` (stereo not shown) [Compound 131, 3-cyclohexyl-2-(6-methoxy-4-oxoquinazolin-3(4H)-yl)-N-(thiazol-2-yl)propanamide] gave a pEC50 of at most 5.70.
